How the values were obtained:
Experiment in all cases: relative viability (nuclei count vs DMSO), 5 days (fraction); higher = more cells survive
[1] = compound: C1=CC=C(C(=C1)C2=CC=C(C=C2)C3=CSC4=C3C(=C(C(=O)N4)C#N)O)O + Cc1nc(Nc2ncc(C(=O)Nc3c(C)cccc3Cl)s2)cc(N2CCN(CCO)CC2)n1 [Dasatinib] (partner 0.075 µM)
Outline: (§1)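 A single step with final 0.05% Triton X-100, 1% formaldehyde and 1 ug/ml Hoechst fixed the cells and stained nuclei 5 days after treatment. Lung cancer cell lines in 1536-well plates had been treated by pin tool the day after seeding with one drug alone or a fixed anchor-drug dose plus five library-drug doses (not always all listed) in √10 steps, and nuclei were counted on 4× images. Relative viability is the ratio of nuclei in treated wells to nuclei in vehicle wells, taken as the median of duplicate plates.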

TGX 221 + Pictilisib = compound: CC1=CN2C(=O)C=C(N=C2C(=C1)C(C)NC3=CC=CC=C3)N4CCOCC4 [TGX 221] + CS(=O)(=O)N1CCN(Cc2cc3nc(-c4cccc5[nH]ncc45)nc(N4CCOCC4)c3s2)CC1 [Pictilisib] (partner 1 µM)
Outline: as §1

TGX 221 + Dasatinib = compound: CC1=CN2C(=O)C=C(N=C2C(=C1)C(C)NC3=CC=CC=C3)N4CCOCC4 [TGX 221] + Cc1nc(Nc2ncc(C(=O)Nc3c(C)cccc3Cl)s2)cc(N2CCN(CCO)CC2)n1 [Dasatinib] (partner 0.075 µM)
Outline: as §1

TGX 221 + AZD7762 = compound: CC1=CN2C(=O)C=C(N=C2C(=C1)C(C)NC3=CC=CC=C3)N4CCOCC4 [TGX 221] + NC(=O)Nc1cc(-c2cccc(F)c2)sc1C(=O)N[C@H]1CCCNC1 [AZD7762] (partner 0.2 µM)
Outline: as §1

Cell Line | relative viability ([1]; first compound 0.08 µM) | relative viability ([1]; first compound 0.253 µM) | relative viability ([1]; first compound 0.8 µM) | relative viability ([1]; first compound 2.53 µM) | relative viability ([1]; first compound 8 µM) | relative viability (TGX 221 + Pictilisib; first compound 0.253 µM) | relative viability (TGX 221 + Pictilisib; first compound 0.8 µM) | relative viability (TGX 221 + Pictilisib; first compound 2.53 µM) | relative viability (TGX 221 + Pictilisib; first compound 8 µM) | relative viability (TGX 221 + Dasatinib; first compound 0.08 µM) | relative viability (TGX 221 + Dasatinib; first compound 0.253 µM) | relative viability (TGX 221 + Dasatinib; first compound 0.8 µM) | relative viability (TGX 221 + Dasatinib; first compound 2.53 µM) | relative viability (TGX 221 + Dasatinib; first compound 8 µM) | relative viability (TGX 221 + AZD7762; first compound 0.08 µM) | relative viability (TGX 221 + AZD7762; first compound 0.253 µM) | relative viability (TGX 221 + AZD7762; first compound 0.8 µM) | relative viability (TGX 221 + AZD7762; first compound 2.53 µM) | relative viability (TGX 221 + AZD7762; first compound 8 µM) | relative viability (TGX 221 + Pictilisib; first compound 0.08 µM)
201T | 0.564 | 0.597 | 0.521 | 0.516 | 0.654 | 0.715 | 0.689 | 0.63 | 0.621 | 0.596 | 0.584 | 0.54 | 0.508 | 0.541 | 0.55 | 0.685 | 0.611 | 0.615 | 0.569 | 
LK-2 |  | 0.269 | 0.276 | 0.28 | 0.253 | 0.782 | 0.597 | 0.515 | 0.659 | 0.242 | 0.293 | 0.312 | 0.298 | 0.265 | 0.377 | 0.434 | 0.436 | 0.395 | 0.521 | 0.583
NCI-H727 | 0.507 | 0.415 | 0.483 | 0.285 | 0.419 | 0.464 | 0.402 | 0.43 | 0.356 | 0.287 | 0.436 | 0.412 | 0.409 | 0.439 | 0.492 | 0.688 | 0.695 | 0.592 | 0.546 | 0.455

— the supplement of paper PMC10307832
